Each structure is given as a SMILES string. Numbered stars: 1 amine (or outer) side, 2 acyl side, 3 side chain; on linkers, the order of the positions; unused ones are H or OH. Bridge positions count the residues as written; N and C are the ends. Square brackets hold non-standard residues; d marks the D form. Side chains are listed from the residue outwards. Peptide text beside a SMILES is read from it. * marks the point of attachment. DOTA = O=C(O)CN1CCN(CC(=O)O)CCN(CC(=O)*)CCN(CC(=O)O)CC1; Trp(7-Me) = Cc1cccc2c(C[C@H](N)C(=O)O)c[nH]c12; γGlu = O=C(O)[C@H](CCC(=O)[*:2])N[*:1]; 2Nal = N[C@@H](Cc1ccc2ccccc2c1)C(=O)O; Lauroyl = CCCCCCCCCCCC(=O)*; Ahx = NCCCCCC(=O)O; Sar = CNCC(=O)O Where only a bound is given, the exact number is not on record here.

The results in this text go back to patent US20250011368A1, “DLL3 TARGETING PEPTIDES AND CONSTRUCTS THEREOF” (MARIANA ONCOLOGY INC., priority 2023, published 2025).

In the test the target is T1, human DLL3 (Homo sapiens, UniProt Q9NYJ7).
T1 sequence (Q9NYJ7 27-618): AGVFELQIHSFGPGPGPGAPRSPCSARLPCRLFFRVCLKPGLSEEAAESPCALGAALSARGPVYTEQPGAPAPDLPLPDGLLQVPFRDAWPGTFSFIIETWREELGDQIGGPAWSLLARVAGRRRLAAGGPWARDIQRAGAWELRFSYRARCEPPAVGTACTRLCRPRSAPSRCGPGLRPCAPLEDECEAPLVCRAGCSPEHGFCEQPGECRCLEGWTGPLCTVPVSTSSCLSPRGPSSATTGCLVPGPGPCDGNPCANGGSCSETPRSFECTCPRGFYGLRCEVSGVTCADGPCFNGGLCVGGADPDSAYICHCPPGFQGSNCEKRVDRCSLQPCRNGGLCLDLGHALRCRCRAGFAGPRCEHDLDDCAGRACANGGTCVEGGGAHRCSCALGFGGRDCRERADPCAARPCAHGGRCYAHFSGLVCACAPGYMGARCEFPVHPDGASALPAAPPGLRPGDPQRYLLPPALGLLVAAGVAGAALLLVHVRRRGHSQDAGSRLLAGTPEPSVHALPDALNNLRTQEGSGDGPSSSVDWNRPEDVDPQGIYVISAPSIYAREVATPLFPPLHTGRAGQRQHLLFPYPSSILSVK
In words: Affinity determination by Surface Plasmon Resonance (SPR). The class given is binding. As to conditions: 25° C., biotinylated human DLL3 immobilized on streptavidin sensor chip, 1:1 binding model; read-out: SPR KD. In a few lines: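 Kinetic and affinity constants were derived by fitting sensorgrams to a 1:1 binding model. Graded compound concentrations flowed at 100 μL/minute in 20 mM phosphate running buffer with 2% DMSO over streptavidin-immobilized biotinylated human DLL3, reference-subtracted.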

Take `CCCCCCCCCCCC(=O)NCCCC[C@@H]1NC(=O)[C@H](Cc2ccc3ccccc3c2)NC(=O)[C@H](CC(N)=O)NC(=O)[C@H](CC(N)=O)NC(=O)[C@@H](NC(=O)[C@@H](NC(=O)[C@@H](NC(=O)[C@H](Cc2c[nH]c3ccccc23)NC(C)=O)[C@@H](C)O)[C@@H](C)CC)CSSC[C@@H](C(=O)N[C@@H](Cc2c[nH]c3ccccc23)C(=O)N2CCC[C@H]2C(=O)N[C@H](CCCCNC(=O)CC[C@H](NC(=O)CC[C@H](NC(=O)CC[C@H](NC(=O)CN2CCN(CC(=O)O)CCN(CC(=O)O)CCN(CC(=O)O)CC2)C(=O)O)C(=O)O)C(=O)O)C(N)=O)NC(=O)[C@H](CC(=O)O)NC1=O` [compound 368, Ac-W-T-I-C(3)-N-N-(2Nal)-K(C12)-D-C(3)-W-P-[D-Lys(gE-gE-gE-DOTA)]-NH2] (Ac-WTICNN[2Nal]K(Lauroyl)DCWP[dK]([γGlu-γGlu-γGlu-DOTA])-NH2; disulfide 4-10): the dissociation constant (Kd) was 1 to 10 nM.
The figure for `CCCCCCCCCCCC(=O)NCCCC[C@@H]1NC(=O)[C@H](Cc2ccc3ccccc3c2)NC(=O)[C@H](CC(N)=O)NC(=O)[C@H](CC(N)=O)NC(=O)[C@@H](NC(=O)[C@@H](NC(=O)[C@@H](NC(=O)[C@H](Cc2c[nH]c3c(C)cccc23)NC(C)=O)[C@@H](C)O)[C@@H](C)CC)CSSC[C@@H](C(=O)N[C@@H](Cc2c[nH]c3ccccc23)C(=O)N2CCC[C@H]2C(=O)N[C@H](CCCCNC(=O)CN2CCN(CC(=O)O)CCN(CC(=O)O)CCN(CC(=O)O)CC2)C(N)=O)NC(=O)[C@H](CC(=O)O)NC1=O` [compound 369, Ac-(7Me-W)-T-I-C(3)-N-N-(2Nal)-H-D-C(3)-W-P-[D-Lys(DOTA)]-NH2] (Ac-[Trp(7-Me)]TICNN[2Nal]K(Lauroyl)DCWP[dK](DOTA)-NH2; disulfide 4-10) is 1 to 10 nM; for `CC[C@H](C)[C@H](NC(=O)[C@@H](NC(=O)[C@H](Cc1c[nH]c2ccccc12)NC(C)=O)[C@@H](C)O)C(=O)N[C@H]1CSSC[C@@H](C(=O)N[C@@H](Cc2c[nH]c3ccccc23)C(=O)N2CCC[C@H]2C(=O)N(C)CC(=O)N(C)CC(=O)N(C)CC(=O)N(C)CC(=O)N(C)CC(=O)N[C@H](CCCCNC(=O)CN2CCN(CC(=O)O)CCN(CC(=O)O)CCN(CC(=O)O)CC2)C(N)=O)NC(=O)[C@H](CC(=O)O)NC(=O)[C@H](Cc2cnc[nH]2)NC(=O)[C@H](Cc2ccc3ccccc3c2)NC(=O)[C@H](CC(N)=O)NC(=O)[C@H](CC(N)=O)NC1=O` [compound 371, Ac-W-T-I-C(3)-N-N-(2Nal)-H-D-C(3)-W-P-(Sar)5-[D-Lys(DOTA)]-NH2] (Ac-WTICNN[2Nal]HDCWP[Sar][Sar][Sar][Sar][Sar][dK](DOTA)-NH2; disulfide 4-10) it is < 1 nM; for `CC[C@H](C)[C@H](NC(=O)[C@@H](NC(=O)[C@H](Cc1c[nH]c2ccccc12)NC(C)=O)[C@@H](C)O)C(=O)N[C@H]1CSSC[C@@H](C(=O)N[C@@H](Cc2c[nH]c3ccccc23)C(=O)N2CCC[C@H]2C(=O)NCCCCCC(=O)NCCCCCC(=O)N[C@H](CCCCNC(=O)CN2CCN(CC(=O)O)CCN(CC(=O)O)CCN(CC(=O)O)CC2)C(N)=O)NC(=O)[C@H](CC(=O)O)NC(=O)[C@H](Cc2cnc[nH]2)NC(=O)[C@H](Cc2ccc3ccccc3c2)NC(=O)[C@H](CC(N)=O)NC(=O)[C@H](CC(N)=O)NC1=O` [compound 372, Ac-W-T-I-C(3)-N-N-(2Nal)-H-D-C(3)-W-P-(Ahx)2-[D-Lys(DOTA)]-NH2] (Ac-WTICNN[2Nal]HDCWP[Ahx][Ahx][dK](DOTA)-NH2; disulfide 4-10) it is < 1 nM.
